Source: patent US8192962B2, “Processes for detecting toxic substances” (Daikin Industries, Ltd., priority 2001, dated 2012)

Tested on: Metabolism protein genes
Assay: DNA chip mRNA expression in yeast, metabolism protein genes (Table 7)
Assay type: cell-based, Saccharomyces cerevisiae S288C
Method: Yeast (Saccharomyces cerevisiae S288C (α SUC2mal mel gap2 CUP1)) were incubated at 25° C. on YPD medium (yeast extract 1%, polypepton 2%, glucose 2%). One of toxic chemical substances was added to the cells at logarithmic growth phase, and the cells were further incubated for two hours. Cells were cultured without any chemical substance in the same condition, and were used as control. Concentrations of the chemical substances were defined to inhibit the growth of the yeast but not lead to death.
After completion of the incubation, the culture was centrifuged to collect the cells. To the cells, sodium acetate buffer (50 mM sodium acetate, 10 mM EDTA, 1% SDS) was added, and the mixture was shaken at 65° C. for five minutes, followed by returning to room temperature, and obtaining the supernatant, of which the procedures were repeated two times. To the supernatant, ½ amount of a solution of phenol/chloroform was added, and the mixture was centrifuged to give a supernatant, which was added with an equal amount of chloroform, and the mixture was centrifuged to give a supernatant. To the supernatant, an equal amount of isopropanol containing 0.3 M sodium acetate was added, and the mixture was allowed to stand at room temperature for 30 minutes, after which the mixture was centrifuged to give a sediment of the whole RNAs. Seventy % ethanol was added to the sediment, and the mixture was again centrifuged to give a sediment, which was then dried and dissolved in water. mRNA was isolated from the whole RNAs as followings. In view of the fact that a poly A chain is attached to the 3′ terminus of mRNA, a polynucleotide having a poly T structure which was immobilized on the surface of latex beads was used to trap the mRNA, and then the mRNA was washed and eluted with spine column (Oligotex-dT30<Super>mRNA Purification Kit, Takara). Reverse transcription of the mRNA was conducted with a reverse transcriptase (Super Script II Reverse Transcriptase; catalogue No. 18064-014, GibcoBRL) using fluorescence-labeled nucleotides to give cDNAs that were introduced with Cy3-dUTP or Cy5-dUTP during the reverse transcription.
The labeled cDNAs were dissolved in TE buffer (10mM Tris-HCl/1 mM EDTA, pH8.0), and the solution was dropped on the DNA chip containing the whole genes of yeast (DNA Chip Research Inc. Japan) so that the cDNAs were hybridized on the DNA chip at 65° C. for over 12 hours. The fluoresces intensity of the DNA chip was read with a scanner, and the ratio relative to the fluorescence intensity resulting from the absence of chemical substance was estimated as the following, which is shown in Tables 1 to 9: […]

## [Cl][Pb][Cl] [(4), PbCl2]
Yeast gene YJR155W
  The level of expressed mRNA in the presence of chemical substance/The level of expressed mRNA in the absence of chemical substance: 2.5
Yeast gene YKL035W
  The level of expressed mRNA in the presence of chemical substance/The level of expressed mRNA in the absence of chemical substance: 1.2
Yeast gene YKL060C
  level of expressed mRNA in the presence/in the absence of chemical substance: 1.0
Yeast gene YKL091C
  The level of expressed mRNA in the presence of chemical substance/The level of expressed mRNA in the absence of chemical substance: 2.6
Yeast gene YKL104C
  The level of expressed mRNA in the presence of chemical substance/The level of expressed mRNA in the absence of chemical substance: 1.2
Yeast gene YKL148C
  level of expressed mRNA in the presence/in the absence of chemical substance: 0.7
Yeast gene YKL152C
  The level of expressed mRNA in the presence of chemical substance/The level of expressed mRNA in the absence of chemical substance: 0.9
Yeast gene YKL157W
  level of expressed mRNA in the presence/in the absence of chemical substance: 1.3
Yeast gene YKL213C
  The level of expressed mRNA in the presence of chemical substance/The level of expressed mRNA in the absence of chemical substance: 1.3
Yeast gene YKL215C
  The level of expressed mRNA in the presence of chemical substance/The level of expressed mRNA in the absence of chemical substance: 0.8
Yeast gene YKR034W
  level of expressed mRNA in the presence/in the absence of chemical substance: 4.7
Yeast gene YLL058W
  The level of expressed mRNA in the presence of chemical substance/The level of expressed mRNA in the absence of chemical substance: 0.9
Yeast gene YLR006C
  level of expressed mRNA in the presence/in the absence of chemical substance: 6.2
Yeast gene YLR044C
  level of expressed mRNA in the presence/in the absence of chemical substance: 0.9
Yeast gene YLR056W
  level of expressed mRNA in the presence/in the absence of chemical substance: 0.8
Yeast gene YLR058C
  level of expressed mRNA in the presence/in the absence of chemical substance: 2.6
Yeast gene YLR081W
  level of expressed mRNA in the presence/in the absence of chemical substance: 3.6
Yeast gene YLR089C
  level of expressed mRNA in the presence/in the absence of chemical substance: 0.9
Yeast gene YLR180W
  The level of expressed mRNA in the presence of chemical substance/The level of expressed mRNA in the absence of chemical substance: 1.0
Yeast gene YLR273C
  The level of expressed mRNA in the presence of chemical substance/The level of expressed mRNA in the absence of chemical substance: 2.4
Yeast gene YLR284C
  level of expressed mRNA in the presence/in the absence of chemical substance: 1.9
Yeast gene YLR299W
  The level of expressed mRNA in the presence of chemical substance/The level of expressed mRNA in the absence of chemical substance: 1.3
Yeast gene YLR300W
  The level of expressed mRNA in the presence of chemical substance/The level of expressed mRNA in the absence of chemical substance: 1.0
Yeast gene YLR304C
  level of expressed mRNA in the presence/in the absence of chemical substance: 0.7
Yeast gene YLR307W
  The level of expressed mRNA in the presence of chemical substance/The level of expressed mRNA in the absence of chemical substance: 3.3
Yeast gene YLR348C
  The level of expressed mRNA in the presence of chemical substance/The level of expressed mRNA in the absence of chemical substance: 1.2
Yeast gene YLR354C
  level of expressed mRNA in the presence/in the absence of chemical substance: 1.5
Yeast gene YLR372W
  level of expressed mRNA in the presence/in the absence of chemical substance: 0.8
Yeast gene YML022W
  level of expressed mRNA in the presence/in the absence of chemical substance: 1.1
Yeast gene YML054C
  The level of expressed mRNA in the presence of chemical substance/The level of expressed mRNA in the absence of chemical substance: 3.4
Yeast gene YML070W
  The level of expressed mRNA in the presence of chemical substance/The level of expressed mRNA in the absence of chemical substance: 1.9
Yeast gene YML100W
  The level of expressed mRNA in the presence of chemical substance/The level of expressed mRNA in the absence of chemical substance: 1.4
Yeast gene YMR008C
  The level of expressed mRNA in the presence of chemical substance/The level of expressed mRNA in the absence of chemical substance: 1.0
Yeast gene YMR011W
  level of expressed mRNA in the presence/in the absence of chemical substance: 5.5
Yeast gene YMR015C
  level of expressed mRNA in the presence/in the absence of chemical substance: 0.9
Yeast gene YMR020W
  The level of expressed mRNA in the presence of chemical substance/The level of expressed mRNA in the absence of chemical substance: 1.7
Yeast gene YMR083W
  level of expressed mRNA in the presence/in the absence of chemical substance: 1.1
Yeast gene YMR105C
  The level of expressed mRNA in the presence of chemical substance/The level of expressed mRNA in the absence of chemical substance: 4.2
Yeast gene YMR189W
  The level of expressed mRNA in the presence of chemical substance/The level of expressed mRNA in the absence of chemical substance: 2.8
Yeast gene YMR205C
  level of expressed mRNA in the presence/in the absence of chemical substance: 0.8
Yeast gene YMR261C
  level of expressed mRNA in the presence/in the absence of chemical substance: 0.8
Yeast gene YMR271C
  The level of expressed mRNA in the presence of chemical substance/The level of expressed mRNA in the absence of chemical substance: 2.0
Yeast gene YMR296C
  The level of expressed mRNA in the presence of chemical substance/The level of expressed mRNA in the absence of chemical substance: 2.6
Yeast gene YMR323W
  level of expressed mRNA in the presence/in the absence of chemical substance: 1.1
Yeast gene YNL012W
  The level of expressed mRNA in the presence of chemical substance/The level of expressed mRNA in the absence of chemical substance: 0.8
Yeast gene YNL025C
  level of expressed mRNA in the presence/in the absence of chemical substance: 12.8
Yeast gene YNL045W
  The level of expressed mRNA in the presence of chemical substance/The level of expressed mRNA in the absence of chemical substance: 1.3
Yeast gene YNL104C
  The level of expressed mRNA in the presence of chemical substance/The level of expressed mRNA in the absence of chemical substance: 0.9
Yeast gene YNL106C
  The level of expressed mRNA in the presence of chemical substance/The level of expressed mRNA in the absence of chemical substance: 1.5
Yeast gene YNL169C
  The level of expressed mRNA in the presence of chemical substance/The level of expressed mRNA in the absence of chemical substance: 1.2
Yeast gene YNL192W
  level of expressed mRNA in the presence/in the absence of chemical substance: 1.6
Yeast gene YNL231C
  The level of expressed mRNA in the presence of chemical substance/The level of expressed mRNA in the absence of chemical substance: 0.5
Yeast gene YNL322C
  The level of expressed mRNA in the presence of chemical substance/The level of expressed mRNA in the absence of chemical substance: 0.8
Yeast gene YNL331C
  The level of expressed mRNA in the presence of chemical substance/The level of expressed mRNA in the absence of chemical substance: 1.0
Yeast gene YNL332W
  The level of expressed mRNA in the presence of chemical substance/The level of expressed mRNA in the absence of chemical substance: 2.0
Yeast gene YNR019W
  The level of expressed mRNA in the presence of chemical substance/The level of expressed mRNA in the absence of chemical substance: 1.2
Yeast gene YNR033W
  The level of expressed mRNA in the presence of chemical substance/The level of expressed mRNA in the absence of chemical substance: 1.0
Yeast gene YNR059W
  The level of expressed mRNA in the presence of chemical substance/The level of expressed mRNA in the absence of chemical substance: 1.4
Yeast gene YOL058W
  The level of expressed mRNA in the presence of chemical substance/The level of expressed mRNA in the absence of chemical substance: 0.9
Yeast gene YOL086C
  level of expressed mRNA in the presence/in the absence of chemical substance: 1.1
Yeast gene YOL108C
  level of expressed mRNA in the presence/in the absence of chemical substance: 1.9
Yeast gene YOL116W
  level of expressed mRNA in the presence/in the absence of chemical substance: 2.8
Yeast gene YOL126C
  The level of expressed mRNA in the presence of chemical substance/The level of expressed mRNA in the absence of chemical substance: 1.6
Yeast gene YOL153C
  The level of expressed mRNA in the presence of chemical substance/The level of expressed mRNA in the absence of chemical substance: 3.9
Yeast gene YOL156W
  level of expressed mRNA in the presence/in the absence of chemical substance: 1.1
Yeast gene YOL165C
  The level of expressed mRNA in the presence of chemical substance/The level of expressed mRNA in the absence of chemical substance: 0.9
Yeast gene YOR002W
  level of expressed mRNA in the presence/in the absence of chemical substance: 0.9
Yeast gene YOR085W
  level of expressed mRNA in the presence/in the absence of chemical substance: 1.0
Yeast gene YOR099W
  The level of expressed mRNA in the presence of chemical substance/The level of expressed mRNA in the absence of chemical substance: 1.3
Yeast gene YOR103C
  level of expressed mRNA in the presence/in the absence of chemical substance: 1.8
Yeast gene YOR108W
  level of expressed mRNA in the presence/in the absence of chemical substance: 0.6
Yeast gene YOR128C
  level of expressed mRNA in the presence/in the absence of chemical substance: 2.1
Yeast gene YOR130C
  The level of expressed mRNA in the presence of chemical substance/The level of expressed mRNA in the absence of chemical substance: 1.0
Yeast gene YOR142W
  level of expressed mRNA in the presence/in the absence of chemical substance: 1.0
Yeast gene YOR176W
  level of expressed mRNA in the presence/in the absence of chemical substance: 0.9
Yeast gene YOR178C
  level of expressed mRNA in the presence/in the absence of chemical substance: 2.3
Yeast gene YOR251C
  level of expressed mRNA in the presence/in the absence of chemical substance: 1.8
Yeast gene YOR336W
  The level of expressed mRNA in the presence of chemical substance/The level of expressed mRNA in the absence of chemical substance: 1.0
Yeast gene YOR347C
  The level of expressed mRNA in the presence of chemical substance/The level of expressed mRNA in the absence of chemical substance: 2.2
Yeast gene YOR348C
  level of expressed mRNA in the presence/in the absence of chemical substance: 2.0
Yeast gene YPL017C
  The level of expressed mRNA in the presence of chemical substance/The level of expressed mRNA in the absence of chemical substance: 1.0
Yeast gene YPL028W
  level of expressed mRNA in the presence/in the absence of chemical substance: 0.9
Yeast gene YPL057C
  level of expressed mRNA in the presence/in the absence of chemical substance: 3.1
Yeast gene YPL135W
  level of expressed mRNA in the presence/in the absence of chemical substance: 1.2
Yeast gene YPL148C
  level of expressed mRNA in the presence/in the absence of chemical substance: 2.3
Yeast gene YPR026W
  The level of expressed mRNA in the presence of chemical substance/The level of expressed mRNA in the absence of chemical substance: 1.3
Yeast gene YPR113W
  level of expressed mRNA in the presence/in the absence of chemical substance: 1.3
Yeast gene YPR165W
  level of expressed mRNA in the presence/in the absence of chemical substance: 1.0
Yeast gene YPR167C
  The level of expressed mRNA in the presence of chemical substance/The level of expressed mRNA in the absence of chemical substance: 0.8
Yeast gene YPR183W
  level of expressed mRNA in the presence/in the absence of chemical substance: 0.8
